Measured values as given in patent US11214803B2, “Modulators of YAP1 expression” (Ionis Pharmaceuticals, Inc., priority 2019, dated 2022).
Strand notation (5' to 3'): a small letter for the sugar, then the base; units joined by * are phosphorothioate-linked, units joined directly phosphodiester-linked; [ ] holds rarer units or linkages, { } end groups; capitals alone tell only the bases. e = 2'-O-(2-methoxyethyl) (MOE); k = constrained ethyl (cEt); [5mC] = 5-methylcytosine; d = 2'-deoxy (DNA); m = 2'-O-methyl

Tested on: Yap1 mRNA
Assay: Dose-dependent inhibition of human Yap1 in SNU-449 cells (Example 9, RTS36584)
Format: cell-based
Conditions: free uptake; for % UTC (Yap1 mRNA): approximately 48 hours; for IC50: linear regression on a log/linear plot
Method: Modified oligonucleotides described in the studies above were tested at various doses in SNU-449 cells. Cultured SNU-449 cells at a density of 10,000 cells per well were treated using free uptake with modified oligonucleotides diluted to concentrations described in the tables below. After approximately 48 hours, Yap1 mRNA levels were measured as previously described using the Human Yap1 primer-probe set RTS36584. Yap1 mRNA levels were normalized to total RNA content, as measured by RIBOGREEN®. Results are presented in the tables below as percent control of the amount of Yap1 mRNA relative to untreated control cells (% UTC). IC50s were calculated using a linear regression on a log/linear plot of the data in excel.

Row | Substance | % UTC (Yap1 mRNA) (31.3 nM) [% UTC] | % UTC (Yap1 mRNA) (125.0 nM) [% UTC] | % UTC (Yap1 mRNA) (500.0 nM) [% UTC] | % UTC (Yap1 mRNA) (2000.00 nM) [% UTC] | IC50 [nM]
1 | 1197271 (kT*kT*kT*dA*mA*dA*dG*dT*dG*dT*dA*dT*dG*kT*k[5mC]*kA; antisense) [compound 1197271] | 70 | 47 | 19 | 8 | 100
2 | 1197223 (kT*kA*kA*dG*dT*dA*dA*dG*dG*dT*dT*dT*d[5mC]*k[5mC]*k[5mC]*kA; antisense) [compound 1197223] | 88 | 55 | 25 | 8 | 200
3 | 1197312 (kT*kG*kT*dA*mU*dG*dT*d[5mC]*dA*dG*dA*dA*dG*kA*kG*kT; antisense) [compound 1197312] | 101 | 58 | 34 | 11 | 300
4 | 1198960 (kA*kA*dG*dT*dG*dT*dA*dT*dG*dT*d[5mC]*kA*dG*kA*dA*kG; antisense) [compound 1198960] | 77 | 35 | 8 | 2 | 100
5 | 1198290 (kT*kG*kG*dA*dA*dA*dT*dT*dG*dT*d[5mC]*dT*k[5mC]*eA*kT*eG; antisense) [compound 1198290] | 60 | 39 | 20 | 10 | 100
6 | 1198422 (k[5mC]*dT*dT*dA*dT*dA*dT*dG*dG*dT*dT*kT*eT*kG*eT*kG) [compound 1198422] | 88 | 60 | 30 | 19 | 200
7 | 1198267 (kA*kG*dT*dG*dT*dA*dT*dG*dT*d[5mC]*dA*eG*eA*eA*kG*kA; antisense) [compound 1198267] | 78 | 44 | 15 | 3 | 100
8 | 1198900 (kA*kG*dA*dG*dT*dA*dT*dG*dT*dG*dG*k[5mC]*dA*kA*dT*kA; antisense) [compound 1198900] | 69 | 36 | 18 | 7 | 100
9 | 1200784 (kT*kG*kT*d[5mC]*dT*mC*dA*dT*dG*d[5mC]*d[5mC]*dT*dT*kA*kT*kA; antisense) [compound 1200784] | 70 | 51 | 26 | 12 | 100
10 | 1198384 (kT*dA*dT*dT*dA*dG*dA*dG*dT*dA*dT*kG*eT*kG*eG*k[5mC]; antisense) [compound 1198384] | 76 | 50 | 24 | 17 | 100
11 | 1198698 (kA*kA*dG*dT*dG*dT*dA*dT*dG*dT*d[5mC]*dA*kG*eA*kA*eG) [compound 1198698] | 55 | 29 | 8 | 2 | 30
12 | 1198424 (k[5mC]*dT*d[5mC]*dT*dT*dA*dT*dA*dT*dG*dG*kT*eT*kT*eT*kG; antisense) [compound 1198424] | 64 | 44 | 24 | 9 | 100
13 | 1197313 (kA*kG*kT*dG*mU*dA*dT*dG*dT*d[5mC]*dA*dG*dA*kA*kG*kA; antisense) [compound 1197313] | 71 | 38 | 16 | 6 | 100
14 | 1197216 (kA*kA*kA*dG*dT*dG*dT*dA*dT*dG*dT*d[5mC]*dA*kG*kA*kA; antisense) [compound 1197216] | 66 | 39 | 15 | 4 | 100
15 | 1200789 (G_{ks}G_{ks}A_{ks}A_{ds}A_{ds}U_{ys}T_{ds}G_{ds}T_{ds}^{m}C_{ds}T_{ds}^{m}C_{ds}A_{ds}T_{ks}G_{ks}^{m}C_{k}; as printed in the source, key not given here) [compound 1200789] | 60 | 32 | 15 | 5 | 50
16 | 1198664 (kG*k[5mC]*dT*dT*dT*dG*dG*dA*dA*dG*dA*dT*k[5mC]*eT*kG*eA; antisense) [compound 1198664] | 52 | 33 | 14 | 5 | < 30

Row | Substance | % UTC (Yap1 mRNA) (31.3 nM) [% UTC] | % UTC (Yap1 mRNA) (125.0 nM) [% UTC] | % UTC (Yap1 mRNA) (500.0 nM) [% UTC] | % UTC (Yap1 mRNA) (2000.00 nM) [% UTC] | IC50 [nM]
17 | 1200788 (kG*kA*kA*dA*dT*mU*dG*dT*d[5mC]*dT*d[5mC]*dA*dT*kG*k[5mC]*k[5mC]) [compound 1200788] | 61 | 38 | 19 | 9 | 100
18 | 1197235 (kA*kT*kT*dA*mG*dA*dG*dT*dA*dT*dG*dT*dG*kG*k[5mC]*kA; antisense) [compound 1197235] | 64 | 36 | 16 | 5 | 100
19 | 1198203 (kG*kG*dA*dA*dA*dT*dT*dG*dT*d[5mC]*dT*e[5mC]*eA*eT*kG*k[5mC]) [compound 1198203] | 71 | 51 | 25 | 11 | 100
20 | 1198638 (kA*kG*dA*dG*dT*dA*dT*dG*dT*dG*dG*d[5mC]*kA*eA*kT*eA; antisense) [compound 1198638] | 70 | 42 | 13 | 4 | 100
21 | 1198788 (kA*eA*kG*dT*dG*dT*dA*dT*dG*dT*d[5mC]*dA*eG*eA*kA*kG) [compound 1198788] | 64 | 30 | 7 | 2 | 100
22 | 1200861 (kT*kT*kA*dA*dA*mG*dT*dG*dT*dA*dT*dG*dT*k[5mC]*kA*kG; antisense) [compound 1200861] | 74 | 43 | 17 | 4 | 100
23 | 1198470 (kT*kA*dT*dT*dA*dG*dA*dG*dT*dA*dT*eG*kT*eG*kG*e[5mC]; antisense) [compound 1198470] | 73 | 41 | 18 | 9 | 100
24 | 1198510 (k[5mC]*kT*d[5mC]*dT*dT*dA*dT*dA*dT*dG*dG*eT*kT*eT*kT*eG; antisense) [compound 1198510] | 71 | 44 | 18 | 6 | 100
25 | 1198786 (kT*eG*kT*dA*dT*dG*dT*d[5mC]*dA*dG*dA*dA*eG*eA*kG*kT) [compound 1198786] | 63 | 32 | 11 | 2 | 100
26 | 1198856 (k[5mC]*kT*dT*dA*dT*dA*dT*dG*dG*dT*dT*kT*eT*kG*eT*kG; antisense) [compound 1198856] | 72 | 55 | 24 | 7 | 100
27 | 1197229 (kG*kG*kA*dA*mA*dT*dT*dG*dT*d[5mC]*dT*d[5mC]*dA*kT*kG*k[5mC]; antisense) [compound 1197229] | 54 | 32 | 16 | 7 | 30
28 | 1198353 (kA*kG*kT*dG*dT*dA*dT*dG*dT*d[5mC]*dA*dG*kA*eA*kG*eA; antisense) [compound 1198353] | 60 | 30 | 10 | 4 | 40
29 | 1198875 (kA*kA*dA*dG*dT*dG*dT*dA*dT*dG*dT*k[5mC]*eA*kG*eA*kA; antisense) [compound 1198875] | 61 | 23 | 4 | 1 | 40
30 | 1009326 (kT*kA*kT*dT*dA*dG*dA*dG*dT*dA*dT*dG*dT*kG*kG*k[5mC]; antisense) [compound 1009326] | 59 | 35 | 14 | 4 | 50
31 | 1198365 (k[5mC]*kT*kA*dA*dG*dT*dA*dA*dG*dG*dT*dT*kT*e[5mC]*k[5mC]*e[5mC]; antisense) [compound 1198365] | 59 | 38 | 15 | 5 | 100
